Measurements reported in US20010001101A1, “Phenanthroline derivatives” (Zeneca Limited, priority 1997, published 2001).

Tests used:
dermal incisional wound = experiment: dermal wound healing, rat incisional model; format: in vivo; settings: compared to control
Protocol: FIG. 6 illustrates the tensile strength on dermal incisional wound on day 7 after oral treatment of Compound 3 and Compound 12.
FIG. 7 illustrates the tensile strength of incisional wound after local injections of Compound 12.
(§1) The effectiveness of the compounds in dermal wound healing was tested using two wound healing models—rat punch model and rat incisional model—as described above.

[1] = system: balloon injured carotid arteries; experiment: rat restenosis model (balloon carotid artery injury); format: in vivo; settings: 50 mg/kg oral gavage twice daily day 0-14; day 14
Excerpt: (§2) (f) Various in vivo animal models to determine the applicability of utilizing the compounds of the present invention to treat fibrotic disorders specific to certain cell types or organs. For example, a cardiac fibrosis model in rats, as generally described in Kondo et al., Cardiovascu. Res. 21:248-254 (1987), and Benjamin et al., Circulation Res. 65(3):657-670 (1989), may be used to measure the effectiveness of the compounds of the present invention to inhibit cardiac fibrosis, as well as provide evidence of the regeneration of cardiac cells upon inhibition of fibrotic cell proliferation. Similarly, the left carotid artery injury model, as described generally in Clowes et al., Lab Invest. 49:327-33 (1983), Muller et al., Am. Col. Cardio. 19(2):418 (1992), and Jackson, Trends Cardiovasc. Med. 4:122-130 (1994), may be used to determine the effectiveness of the compounds of the instant invention in vascular remodeling. […]
The effectiveness of Compound 12 in vascular remodeling, as determined in a rat restenosis model, was determined by using a left carotid artery injury rat model, as generally described above. […]

dermal punch wound = experiment: dermal wound healing, rat punch model; format: in vivo; settings: compared to control
Protocol: FIG. 5 illustrates wound area after treatment of Compound 3 in the dermal punch model.
as §1

[2] = system: scar tissue in the brain following injury; experiment: brain injury model; format: in vivo, rat; settings: oral gavage twice daily day 0 to 14, day 14
Excerpt: as §2

[3] = system: kidney fibrosis after Adriamycin injection; experiment: kidney fibrosis rat model (Adriamycin); format: in vivo
Excerpt: (f) Various in vivo animal models to determine the applicability of utilizing the compounds of the present invention to treat fibrotic disorders specific to certain cell types or organs. For example, a cardiac fibrosis model in rats, as generally described in Kondo et al., Cardiovascu. Res. 21:248-254 (1987), and Benjamin et al., Circulation Res. 65(3):657-670 (1989), may be used to measure the effectiveness of the compounds of the present invention to inhibit cardiac fibrosis, as well as provide evidence of the regeneration of cardiac cells upon inhibition of fibrotic cell proliferation. Similarly, the left carotid artery injury model, as described generally in Clowes et al., Lab Invest. 49:327-33 (1983), Muller et al., Am. Col. Cardio. 19(2):418 (1992), and Jackson, Trends Cardiovasc. Med. 4:122-130 (1994), may be used to determine the effectiveness of the compounds of the instant invention in vascular remodeling. Other models, such as in vivo brain injury models (see e.g., Berry et al., Acto Neurochrurgica, Suppl., 32:31-53 (1993), Logan et al., Brain Research 587:216-255 (1992)), in vivo kidney fibrosis models (see e.g., DiDonato et al., Nephron 76(2):192-200 (1997), in vivo post-surgical abdominal adhesions model (see e.g., Cohen et al., J. Trauma 30(12):S149-154 (1990), Stein & Keiser, J. Surg. Res. 11:277 (1971), Diegelman et al., J. Surg. Res. 19:239-43 (1975)) may be used to determine the effectiveness of the compounds of the instant invention to treat fibrotic disorders related to the brain, kidney, abdomen and dermis, as well as provide information related to the treatment of other major organs.
The effectiveness of the compounds of the instant invention to treat kidney fibrosis was determined using a kidney fibrosis rat model, as generally described above. More specifically, male SD rats weighing approximately 200-225 g each were injected intravenously with Adriamycin (Pharmacia, MI) on day 1 and again on day 15. The Adriamycin was dissolved in 0.5 ml sterile physiologic saline and infused slowly into the tail vein to ensure complete delivery and to avoid perivascular tissue destruction of the drug.
Three treatment groups were established following Adriamycin injections. The rats were randomly assigned to receive a twice daily gavage of Compound 12 or control (1% CMC). Five animals from each group were sacrificed on week 6, 8 or 12.

[4] = system: isoproterenol-induced myocardial fibrosis; experiment: rat isoproterenol-induced myocardial fibrosis model; format: in vivo; settings: left ventricular function at week 6; 50 mg/kg oral gavage twice daily day 4 to day 11
Excerpt: as §2, with “Col.” for “Col. Cardio. 19(2):418 (1992), and Jackson, Trends Cardiovasc. Med. 4:122-130 (1994), may be used to determine the effectiveness of the compounds of the instant invention in vascular remodeling.”
The effectiveness of one of the compounds of the present invention to inhibit cardiac fibrosis and permit the regeneration of cardiac cells was tested in the cardiac fibrosis model generally described above. […] The compound was administered after suspension in 1% CMC at 50 mg/kg by oral gavage twice daily from day 4 to day 11 and histological data was evaluated on day 11 by general histology (H&E and trichrome) and immunohistochemical staining for proliferating cell nuclear antigen (PCNA). Cardiac function (left ventricular function) was measured by inserting a catheter into the left ventricle for measurement of relaxation and contraction pressure on week 6.

[5] = system: granulation tissue in wound chamber; experiment: in vivo wound chamber model; design: species or system rat
Protocol: (e) An in vivo wound chamber model involving the measurement of histological changes in granulation tissue. The test compounds were tested in rats according to the procedures generally described in Schilling et al., Surgery 46(4):702-710 (1959), Hunt et al., Am. J. Surgery 114:302-307 (1967), and Grotendorst et al., J. Clin Inves. 76:2323-2329 (1985). More specifically, stainless wire mesh cylinders were implanted subcutaneously under the back skin of rats (two chambers per animal). The compounds of the present invention were then dissolved in DMSO and injected into each chamber on a daily basis at various concentrations from either day 0-14 or day 7-14. On day 14, the chambers were collected and the granulation tissues contained within the chambers were collected for biochemical (collagen content) or histological evaluation.
Following the in vivo wound chamber model described above, fourteen of the claimed compounds tested to determine the effectiveness of the claimed compounds in inhibiting collagen deposition in the wound chamber.

## O=C(O)C1C=Nc2c(ccc3cccnc23)C1=O (centres unmarked) [Compound 12, 3-carboxy-4-oxo-3,4-dihydro-1,10-phenanthroline]
Dermal incisional wound
  tensile strength of wound: reduced tensil strength
[1]
  development of neointimal formation: significantly reduce the development of neointimal formation
Dermal punch wound
  healing time: increased healing time
[2]; GFAP staining
  activation of astrocytes: decreased the activation of actrocytes
[2]; type I collagen staining
  collagen deposition in the scar: reduced collagen deposition in the scar
[3]; twice daily gavage, versus control
  development of renal hypertension: blocked the development of renal hypertension
[3]; twice daily gavage, versus control (1% CMC)
  development of kidney fibrosis (histology): prevented the development of kidney fibrosis
[3]; week 12
  Cardiac function: improved
  long term toxicity, as measured by mean body weight and bone density: not material
[4]
  Contraction pressure (dP/dt, mm Hg): 5770 ± 95.1 mm Hg
  Relaxation pressure (Min-P, mm Hg): 2.7 ± 0.8 mm Hg
[5]; Rattus norvegicus, 50 μg dosage, injected into chamber daily, day 7-14 treatment, read-out: Mean Collagen content (% of Control) On Day 14
  response vs control in vivo at 0.05 mg: 80.7%
[5]; wound chamber
  apoptotic cell numbers (positive staining of apoptotic cells): dose-dependently increased positive staining of apoptotic cells
[5]; wound chamber, at higher doses
  rebound of collagen accumulation after discontinuing administration: prevented rebound of collagen accumulation
